Test results from patent US20240368122A1, “JAK2 INHIBITORS AND METHODS OF USE THEREOF” (RELAY THERAPEUTICS, INC., priority 2021, published 2024).
Read-outs that look alike come from different tables or passages of the source.

How the values were obtained:
[1] = test system: TF1 JAK2 V617F STAT5 reporter; assay: Cellular TF1 STAT5 assay (luciferase reporter), JAK2 V617F; format: cell-based; details: read-out: Cell PD TF1 V617F STAT5 (IC50)
Outline: (§1)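 Measured in TF1 cells with mutant JAK2 V617F and STAT-responsive luciferase: 18-20 h compound exposure at 37 °C, then ONE-glo luminescence.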

[2] = molecular target: T1, JAK2 JH2 WT (V536-D812) [W659A, W777A, F794H solubilizing mutations] (Homo sapiens, UniProt O60674, F794H/W659A/W777A); assay: Surface Plasmon Resonance (SPR) binding assay, JAK2 JH2 domain
T1 construct: **JAK2 JH2 WT (V536-D812) [W659A, W777A, F794H solubilizing mutations]; C-thrombin-avi-His6; thrombin cleavage site (C); His6 (C); purchased Biortus
T1 sequence (O60674 536-812 W659A/W777A/F794H): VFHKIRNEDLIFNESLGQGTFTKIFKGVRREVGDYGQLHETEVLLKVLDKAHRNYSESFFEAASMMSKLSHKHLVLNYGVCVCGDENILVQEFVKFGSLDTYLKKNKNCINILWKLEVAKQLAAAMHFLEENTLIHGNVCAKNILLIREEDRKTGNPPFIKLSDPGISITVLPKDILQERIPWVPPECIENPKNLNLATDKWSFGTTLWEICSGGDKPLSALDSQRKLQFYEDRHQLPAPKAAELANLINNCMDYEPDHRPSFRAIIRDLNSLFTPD
Outline: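 Kinetics came from 1:1 fits of single-cycle runs at 20 °C: four 3-fold dilutions from 5 uM for JH1 or 500 nM for JH2, 60 s association, and 300 s or 1200 s dissociation respectively. Protein was freshly captured per compound in the presence of 10 uM stabilizer compound, with running buffer of pH 7.5 HEPES/NaCl/glycerol/DTT plus 2% DMSO.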

[3] = test system: TF1 JAK2 V617F STAT3 reporter; assay: Cellular TF1 STAT3 assay (luciferase reporter), JAK2 V617F; format: cell-based; details: read-out: Cell PD-TF1 JAK2 V617F STAT3 (IC50)
Outline: as §1

[4] = Homo sapiens, TF-1, TF1 cells, JAK2 V617F

Row | IC50 [1, 4] | Kd [2] | IC50 [3, 4] | IC50 ([1]; TF1 JAK2 V617F) | Kd ([2]; SPR, JAK2 JH2 domain) | IC50 ([3]; TF1 JAK2 V617F) | Compound
1 | 5000 to 100000 nM | 50 to 500 nM | 5000 to 100000 nM | – | – | – | CNC(=O)c1nnc(NC(=O)C2CC2)cc1Nc1cccc(-c2cn(C3CN(C(C)C)C3)nc2CO)c1OC [Compound 335]
2 | 500 to 5000 nM | 0.01 to 10 nM | 500 to 5000 nM | – | – | – | CNC(=O)c1nnc(NC(=O)C2CC2)cc1Nc1cccc(-c2cnn([C@H]3C[C@H]([C@@H](OC)c4ccccn4)C3)c2)c1OC (single isomer, unassigned) [Compound 346]
3 | – | – | – | 50 to 500 nM | 0.01 to 10 nM | 50 to 500 nM | CNC(=O)c1nnc(NC(=O)C2CC2)cc1Nc1cccc(-c2cnc(C(=O)N(C)Cc3cc(C#N)ccn3)cc2C2CC2)c1OC [Compound 153]
4 | 500 to 5000 nM | 0.01 to 10 nM | 500 to 5000 nM | – | – | – | CNC(=O)c1nnc(NC(=O)C2CC2)cc1Nc1cccc(-c2cnn([C@H]3CCN(Cc4ccccn4)C3)c2)c1OC (single isomer, unassigned) [Compound 333]
5 | 50 to 500 nM | 0.01 to 10 nM | 50 to 500 nM | – | – | – | CNC(=O)c1nnc(NC(=O)C2CC2)cc1Nc1cccc(-c2cnn(C3CN(Cc4cccc(C(=O)N5CC(F)(F)C5)n4)C3)c2)c1OC [Compound 311]
6 | 5000 to 100000 nM | 10 to 50 nM | 5000 to 100000 nM | – | – | – | CNC(=O)c1nnc(NC(=O)C2CC2)cc1Nc1cccc(-c2ccc(C3CN(Cc4cc(C#N)ccn4)C3)nc2)c1OC [Compound 279]
7 | – | – | – | 500 to 5000 nM | 0.01 to 10 nM | 500 to 5000 nM | CNC(=O)c1nnc(NC(=O)C2CC2)cc1Nc1cccc(-c2ccc(C(=O)N(C)Cc3cc(C#N)ccn3)c(C#N)c2)c1OC [Compound 118]
8 | 50 to 500 nM | 0.01 to 10 nM | 50 to 500 nM | – | – | – | CNC(=O)c1nnc(NC(=O)C2CC2)cc1Nc1cccc(-c2cnn(C3CN(Cc4cccnc4C#N)C3)c2)c1OC [Compound 212]
9 | 500 to 5000 nM | 0.01 to 10 nM | 50 to 500 nM | – | – | – | CNC(=O)c1nnc(NC(=O)C2CC2)cc1Nc1nccc(-c2ccc(C(=O)N(C)Cc3cc(C#N)ccn3)nc2)c1OC [Compound 240]
10 | 50 to 500 nM | – | 50 to 500 nM | – | 0.01 to 10 nM | – | [2H]C([2H])(c1cccnn1)N1CC(n2cc(-c3cccc(Nc4cc(NC(=O)C5CC5)nnc4C(=O)NC)c3OC)cn2)C1 [Compound 408]
11 | 500 to 5000 nM | 50 to 500 nM | 5000 to 100000 nM | – | – | – | CNC(=O)c1nnc(NC(=O)C2CC2)cc1Nc1cccc(-c2ccc(C3CN(Cc4cc(C#N)ccn4)C3)c(OC)c2)c1OC [Compound 360]
12 | – | – | – | 500 to 5000 nM | 0.01 to 10 nM | 500 to 5000 nM | CNC(=O)c1nnc(NC(=O)C2CC2)cc1Nc1ccc(C)c(-c2cnc(C(=O)N(C)Cc3ccn(C)n3)c(F)c2)c1OC [Compound 47]
13 | 500 to 5000 nM | 0.01 to 10 nM | 500 to 5000 nM | – | – | – | COc1c(Nc2cc(NC(=O)C3CC3)nn3cc(C)nc23)cccc1-c1ccc(C(=O)N(C)Cc2cn(C)nc2C)nc1 [Compound 231]
14 | – | – | – | 5000 to 100000 nM | 0.01 to 10 nM | 5000 to 100000 nM | CNC(=O)c1nnc(NC(=O)C2CC2)cc1Nc1ccc(C)c(-c2cnc(C(=O)N(C)C[C@H]3CCN(C)C3=O)c(F)c2)c1OC (single isomer, unassigned) [Compound 117]
15 | – | – | – | 500 to 5000 nM | 0.01 to 10 nM | 500 to 5000 nM | CNC(=O)c1nnc(NC(=O)C2CC2)cc1Nc1cccc(-c2ccc(C(=O)N(C)Cc3cn(C)nn3)nc2)c1OC [Compound 100]
16 | – | – | – | 500 to 5000 nM | 0.01 to 10 nM | 500 to 5000 nM | CNC(=O)c1nnc(NC(=O)C2CC2)cc1Nc1cccc(-c2cnc(C(=O)N(C)Cc3ccn(C)n3)c(F)c2)c1OC [Compound 53]
17 | – | – | – | 500 to 5000 nM | 0.01 to 10 nM | 500 to 5000 nM | CNC(=O)c1nnc(NC(=O)C2CC2)cc1Nc1cccc(-c2cn(C3CN(Cc4ccccn4)C3)nc2C(F)F)c1OC [Compound 165]
18 | 5000 to 100000 nM | 10 to 50 nM | 5000 to 100000 nM | – | – | – | CNC(=O)c1nnc(NC(=O)C2CC2)cc1Nc1ccc(C)c(-c2ccc(C3CN(Cc4ccccn4)C3)nc2)c1OC [Compound 322]
19 | 500 to 5000 nM | 0.01 to 10 nM | 500 to 5000 nM | – | – | – | CNC(=O)c1nnc(NC(=O)C2CC2)cc1Nc1cccc(-c2cnn(C3CN(Cc4cccc(C(C)=O)n4)[C@H]3C)c2)c1OC (stereo partly drawn) [Compound 377]
20 | 5000 to 100000 nM | 0.01 to 10 nM | 5000 to 100000 nM | – | – | – | CNC(=O)c1nnc(NC(=O)C2CC2)cc1Nc1cccc(-c2cnn([C@H]3C[C@@H](N(C)c4ccccn4)C3)c2)c1OC [Compound 383]
21 | 5000 to 100000 nM | 50 to 500 nM | 5000 to 100000 nM | – | – | – | CNC(=O)c1nnc(NC(=O)C2CC2)cc1Nc1cccc(-c2cn(C3CN(C(C)C)C3)nc2C(C)O)c1OC (stereo not drawn) [Compound 336]

Row | IC50 [1, 4] | Kd [2] | IC50 [3, 4] | IC50 ([1]; TF1 JAK2 V617F) | Kd ([2]; SPR, JAK2 JH2 domain) | IC50 ([3]; TF1 JAK2 V617F) | Compound
22 | – | – | – | 5000 to 100000 nM | 0.01 to 10 nM | 500 to 5000 nM | CNC(=O)c1nnc(NC(=O)C2CC2)cc1Nc1cccc(-c2cnc(C(=O)N(C)Cc3ccon3)c(F)c2)c1OC [Compound 98]
23 | 50 to 500 nM | 0.01 to 10 nM | 50 to 500 nM | – | – | – | CNC(=O)c1nnc(NC(=O)C2CC2)cc1Nc1cccc(-c2ccc(C(=O)N(C)Cc3c(C)nn(C)c3Cl)nc2)c1OC [Compound 197]
24 | 50 to 500 nM | 0.01 to 10 nM | 50 to 500 nM | – | – | – | CNC(=O)c1nnc(NC(=O)C2CC2)cc1Nc1cccc(-c2cnn(C3CN(Cc4cccc(C5CCC5)n4)C3)c2)c1OC [Compound 258]
25 | – | – | – | 500 to 5000 nM | 0.01 to 10 nM | 500 to 5000 nM | CNC(=O)c1nnc(NC(=O)C2CC2)cc1Nc1cccc(-c2ccc(C(=O)N(C)Cc3cc(Cl)ccc3OC)nc2)c1OC [Compound 82]
26 | – | – | – | 5000 to 100000 nM | 0.01 to 10 nM | 5000 to 100000 nM | CNC(=O)c1nnc(NC(=O)C2CC2)cc1Nc1cccc(-c2ccc(C(=O)N(C)Cc3nccc(C#N)c3F)nc2)c1OC [Compound 154]
27 | – | – | – | 5000 to 100000 nM | 0.01 to 10 nM | 5000 to 100000 nM | CNC(=O)c1nnc(NC(=O)C2CC2)cc1Nc1cccc(-c2ccc(NC(=O)Cc3cccn(C)c3=O)cc2)c1OC [Compound 2]
28 | – | – | – | 500 to 5000 nM | 0.01 to 10 nM | 500 to 5000 nM | CNC(=O)c1nnc(NC(=O)C2CC2)cc1Nc1cccc(-c2cnc(C(=O)N(C)Cc3cccn(C)c3=O)cc2C)c1OC [Compound 24]
29 | – | – | – | 50 to 500 nM | 0.01 to 10 nM | 50 to 500 nM | CNC(=O)c1nnc(NC(=O)C2CC2)cc1Nc1cccc(-c2cnc(C(=O)N(C)Cc3cn(C)nc3C)c(F)c2)c1OC [Compound 172]
30 | – | – | – | 500 to 5000 nM | 0.01 to 10 nM | 500 to 5000 nM | CNC(=O)c1nnc(NC(=O)C2CC2)cc1Nc1cccc(-c2ccc(C(=O)N(C)[C@H](C)c3ccn(C)n3)nc2)c1OC (single isomer, unassigned) [Compound 161]
31 | – | – | – | 5000 to 100000 nM | 0.01 to 10 nM | 500 to 5000 nM | CNC(=O)c1nnc(NC(=O)C2CC2)cc1Nc1cccc(-c2ccc(C(=O)N(C)Cc3ccns3)nc2)c1OC [Compound 59]
32 | – | – | – | 50 to 500 nM | 0.01 to 10 nM | 50 to 500 nM | CNC(=O)c1nnc(NC(=O)C2CC2)cc1Nc1ccc(C)c(-c2ccc(C(=O)N(C)Cc3cn(C)nc3C)nc2)c1OC [Compound 164]
33 | 500 to 5000 nM | 0.01 to 10 nM | 500 to 5000 nM | – | – | – | COc1c(Nc2cc(NC(=O)C3CC3)nn3cc(C)nc23)ccc(C)c1-c1ccc(C(=O)N(C)Cc2cc(C#N)ccn2)nc1 [Compound 256]
34 | 500 to 5000 nM | – | 500 to 5000 nM | – | 0.01 to 10 nM | – | CNC(=O)c1nnc(NC(=O)C2CC2)cc1Nc1cccc(-c2cnn([C@H]3C[C@@H]([C@@H](O)c4ccccn4)C3)c2)c1OC (single isomer, unassigned) [Compound 398]
35 | 500 to 5000 nM | 0.01 to 10 nM | 500 to 5000 nM | – | – | – | CNC(=O)c1nnc(NC(=O)C2CC2)cc1Nc1cccc(-c2cnn([C@@H]3CCN(Cc4cccc(C#N)n4)C3)c2)c1OC (single isomer, unassigned) [Compound 318]
36 | – | – | – | 500 to 5000 nM | 0.01 to 10 nM | 500 to 5000 nM | CNC(=O)c1nnc(NC(=O)C2CC2)cc1Nc1cccc(-c2ccc(C(=O)N(C)Cc3ccccc3C(F)(F)F)nc2)c1OC [Compound 52]
37 | 500 to 5000 nM | 0.01 to 10 nM | 500 to 5000 nM | – | – | – | CNC(=O)c1nnc(NC(=O)C2CC2)cc1Nc1cccc(-c2cnn(C3CN([C@H](C)c4cccc(C#N)n4)C3)c2)c1OC (single isomer, unassigned) [Compound 283]
38 | 50 to 500 nM | 0.01 to 10 nM | 50 to 500 nM | – | – | – | CNC(=O)c1nnc(NC(=O)C2CC2)cc1Nc1cccc(-c2cnn(C3CN(Cc4cccc(C5(C#N)CC5)n4)C3)c2)c1OC [Compound 292]
39 | – | – | – | 500 to 5000 nM | 0.01 to 10 nM | 500 to 5000 nM | CNC(=O)c1nnc(NC(=O)C2CC2)cc1Nc1cccc(-c2ccc(C(=O)N(C)Cc3cncc(C#N)c3)nc2)c1OC [Compound 188]
40 | 50 to 500 nM | 0.01 to 10 nM | 50 to 500 nM | – | – | – | CNC(=O)c1nnc(NC(=O)C2CC2)cc1Nc1cccc(-c2cnn(C3CN(Cc4cccc(COC)n4)C3)c2)c1OC [Compound 216]
41 | 500 to 5000 nM | 0.01 to 10 nM | 500 to 5000 nM | – | – | – | CNC(=O)c1nnc(NC(=O)C2CC2)cc1Nc1ccc(C)c(-c2cn([C@@H]3CN(Cc4cccc(C)n4)[C@H]3C)nn2)c1OC (racemic) [Compound 270]
